Measured values from EP4813992A1, “POLYARYL DERIVATIVE AND USE THEREOF” (Hangzhou HealZen Therapeutics Co., Ltd., priority 2023, dated 2025).

Target: HPK1 kinase (Homo sapiens, UniProt Q92918)
Test: Lantha screen assay, inhibitory effect on HPK1 kinase
Assay type: biochemical
Settings: initial compound concentration 1 µM
Procedure: The Lantha screen assay is used to evaluate the inhibitory effect of the compounds on HPK1 kinase. • a) Kinase buffer: 50 mM HEPES (pH 7.5), 10 mM MgCl2, 4 mM DTT, 0.01% Tween-20, 0.01% BSA. • b) Compound Preparation: The compound is diluted with DMSO, and the initial detection concentration of the compound is 1 µM and is diluted to the corresponding concentration. • c) Kinase response and termination: A kinase solution is prepared by adding kinase buffer, the kinase solution and the compound are added to the test plate to be incubated at room temperature for 10 minutes. Fluorescein-PKC and ATP are added to the kinase buffer to form a substrate solution, and 5 µl of the substrate solution is added to the test plate to start the reaction to be incubated at room temperature for 90 minutes; then, 10 µl of a mixture of antibody and EDTA is added to terminate the reaction to be incubated at room temperature for 60 minutes. • d) The date is read by Envision instrument to plot a curve with the Log concentration of the inhibitor as the X-axis and the inhibition rate as the Y-axis, and then the formula Y=Bottom + (Top-Bottom)/(1+(IC50/X)^HillSlope) is used to obtain IC50. Table 1 Inhibitory activity the compounds of the invention on HPK1 kinase

Chain of HPK1 kinase (Q92918 whole entry): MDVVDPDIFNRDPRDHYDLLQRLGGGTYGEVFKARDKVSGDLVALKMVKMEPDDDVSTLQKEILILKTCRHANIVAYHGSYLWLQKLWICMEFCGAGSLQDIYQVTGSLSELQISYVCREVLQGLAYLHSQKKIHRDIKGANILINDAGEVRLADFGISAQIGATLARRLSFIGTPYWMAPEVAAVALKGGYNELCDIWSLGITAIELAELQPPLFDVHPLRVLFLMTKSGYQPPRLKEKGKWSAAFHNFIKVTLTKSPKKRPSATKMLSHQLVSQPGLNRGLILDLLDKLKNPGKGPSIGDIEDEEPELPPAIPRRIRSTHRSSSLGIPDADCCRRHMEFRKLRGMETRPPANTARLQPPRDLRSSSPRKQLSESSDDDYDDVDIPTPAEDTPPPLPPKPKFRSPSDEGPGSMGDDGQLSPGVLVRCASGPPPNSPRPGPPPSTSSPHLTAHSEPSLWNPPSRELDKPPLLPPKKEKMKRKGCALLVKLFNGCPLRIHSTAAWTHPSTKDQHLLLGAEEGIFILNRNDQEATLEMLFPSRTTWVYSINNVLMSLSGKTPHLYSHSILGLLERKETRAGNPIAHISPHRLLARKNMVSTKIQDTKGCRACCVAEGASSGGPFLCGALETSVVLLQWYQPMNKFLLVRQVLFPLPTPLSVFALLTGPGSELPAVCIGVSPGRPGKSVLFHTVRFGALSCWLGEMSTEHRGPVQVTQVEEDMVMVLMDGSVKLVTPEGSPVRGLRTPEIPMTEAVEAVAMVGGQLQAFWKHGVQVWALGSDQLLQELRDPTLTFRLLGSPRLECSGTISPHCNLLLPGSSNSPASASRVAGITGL

Row | Compound | IC50 [nM]
1 | Cc1cc(-c2cnc3[nH]cc(-c4ccc(C(=O)N(C)C)cc4)c3n2)cc(C)c1C1=CCN(CC2CN(c3cccc4c(C5CCC(=O)NC5=O)coc34)C2)CC1 (stereo not shown) [compound 147] | < 10
2 | Cc1cc(-c2cnc3[nH]cc(-c4ccc(C(=O)N(C)C)nc4)c3n2)cc(C)c1C1=CCN(CC2CN(c3ccc(C(=O)NC4CCC(=O)NC4=O)cc3)C2)CC1 (stereo not shown) [compound 030] | < 10
3 | Cc1cc(-c2cnc3[nH]cc(-c4ccc(C(=O)N(C)C)cc4)c3n2)cc(C)c1C1=CCN(CC2CN(c3ccc(NC4CCC(=O)NC4=O)cn3)C2)CC1 (stereo not shown) [compound 022] | < 10
4 | Cc1cc(-c2cnc3[nH]nc(-c4ccc(C(=O)N(C)C)cc4)c3c2)cc(C)c1C1=CCN(CC2CN(c3ncc(C(=O)NC4CCC(=O)NC4=O)o3)C2)CC1 (stereo not shown) [compound 077] | < 10
5 | Cc1cc(N2CC3(CC(N4CC=C(c5c(C)cc(-c6cnc7[nH]cc(-c8ccc(C(=O)N(C)C)cc8)c7n6)cc5C)CC4)C3)C2)ccc1N1CCC(=O)NC1=O [compound 034] | < 10
6 | Cc1cc(-c2cnc3[nH]nc(-c4ccc(C(=O)N(C)C)cc4)c3n2)cc(C)c1C1=CCN(CC2CCN(c3ccc(N4CCC(=O)NC4=O)c(F)c3)C2)CC1 (stereo not shown) [compound 076] | < 10
7 | Cc1cc(N2CC(CN3CC=C(c4c(C)cc(-c5cnc6[nH]cc(-c7cccc(C#N)c7F)c6c5)cc4C)CC3)C2)ccc1N1CCC(=O)NC1=O [compound 101] | < 10
8 | Cc1cc(NCC2(CN3CC=C(c4c(C)cc(-c5cnc6[nH]cc(-c7ccc(C(=O)N(C)C)cc7)c6n5)cc4C)CC3)CCC2)ccc1N1CCC(=O)NC1=O [compound 041] | < 10
9 | Cc1cc(-c2cnc3[nH]cc(-c4ccc(C(=O)N(C)C)cc4)c3n2)cc(C)c1C1=CCN(C2CC(C(=O)c3ccc(F)c(N4CCC(=O)NC4=O)c3)C2)CC1 (stereo not shown) [compound 037] | < 10
10 | Cc1cc(N2CC(CN3CC=C(c4c(C)cc(-c5cnc6[nH]cc(-c7ccc(N8CCOCC8)nc7)c6c5)cc4C)CC3)C2)ccc1N1CCC(=O)NC1=O [compound 103] | < 10
11 | Cc1cc(-c2cnc3[nH]cc(-c4ccc5c(c4)C(C)(C)OC5=O)c3n2)cc(C)c1C1=CCN(C2CN(c3ccc(C4CCC(=O)NC4=O)cc3)C2)CC1 (stereo not shown) [compound 066] | < 10
12 | Cc1cc(-c2cnc3[nH]nc(-c4ccc(C(=O)N(C)C)cc4)c3c2)cc(C)c1C1=CCN(C2CCN(c3ccc(C(=O)NC4CCC(=O)NC4=O)cn3)CC2)CC1 (stereo not shown) [compound 080] | < 10
13 | Cc1cc(-c2cnc3[nH]cc(-c4ccc(C(=O)N(C)C)cc4)c3n2)cc(C)c1C1=CCN(CC(=O)Cc2ccc(C3CCC(=O)NC3=O)c(F)c2)CC1 (stereo not shown) [compound 006] | < 10
14 | Cc1cc(-c2cnc3[nH]cc(-c4ccc(C(=O)N(C)C)cc4)c3n2)cc(C)c1C1=CCN(CC2CN(c3cc(F)c(C4CCC(=O)NC4=O)c(F)c3)C2)CC1 (stereo not shown) [compound 002] | < 10
15 | Cc1cc(-c2cnc3[nH]cc(-c4ccc(C(=O)N(C)C)cc4)c3n2)cc(C)c1C1=CCN(C2CN(c3ccc(C(=O)NC4CCC(=O)NC4=O)cc3)C2)CC1 (stereo not shown) [compound 005] | < 10
16 | Cc1cc(C2CC(CN3CC=C(c4c(C)cc(-c5cnc6[nH]cc(-c7ccc(C(=O)N(C)C)cc7)c6n5)cc4C)CC3)C2)ccc1N1CCC(=O)NC1=O (stereo not shown) [compound 039] | < 10
17 | Cc1cc(-c2cnc3[nH]cc(-c4ccc(C(=O)N(C)C)cc4)c3n2)cc(C)c1C1=CCN(C2CN(c3ccc(C4CCC(=O)NC4=O)cc3)C2)CC1 (stereo not shown) [compound 048] | < 10
18 | Cc1cc(-c2cnc3[nH]cc(-c4ccc(C(=O)N(C)C)cc4)c3n2)cc(C)c1C1=CCN(CC2CN(c3ccc(NC4CCC(=O)NC4=O)nc3)C2)CC1 (stereo not shown) [compound 087] | < 10
19 | Cc1cc(-c2cnc3[nH]cc(-c4ccc(C(=O)N(C)C)cc4)c3n2)cc(C)c1C1=CCN(CC2CN(c3ccc4c(=O)n(C5CCC(=O)NC5=O)ccc4c3)C2)CC1 (stereo not shown) [compound 084] | < 10
20 | Cc1cc(-c2cnc(N)c(Oc3cnn(C4CCN(C)CC4)c3)n2)cc(C)c1C1=CCN(CC2CN(c3ccc(C(=O)NC4CCC(=O)NC4=O)cc3)C2)CC1 (stereo not shown) [compound 095] | < 10
21 | Cc1cc(N2CC(CN3CC=C(c4ccc(-c5cnc6[nH]cc(-c7ccc(C(=O)N(C)C)cc7)c6n5)cc4F)CC3)C2)ccc1N1CCC(=O)NC1=O [compound 133] | < 10
22 | Cc1cc(-c2cnc(N)c(OCc3ccc(C(=O)N(C)C)cc3)n2)cc(C)c1C1=CCN(CC2CN(c3ccc(C(=O)NC4CCC(=O)NC4=O)cc3)C2)CC1 (stereo not shown) [compound 094] | < 10
23 | Cc1cc(-c2cnc3[nH]cc(-c4ccc(C(=O)N(C)C)cc4)c3n2)cc(C)c1C1=CCN(CC2CN(C3=CC(=O)N(C4CCC(=O)NC4=O)C3=O)C2)CC1 (stereo not shown) [compound 088] | < 10

Row | Compound | IC50 [nM]
24 | Cc1cc(-c2cnc3[nH]cc(-c4ccc(C(=O)N(C)C)cc4)c3n2)cc(C)c1C1=CCN(CC2CN(c3ccc(NC4CCC(=O)NC4=O)c(F)c3)C2)CC1 (stereo not shown) [compound 019] | < 10
25 | Cc1cc(-c2cnc3[nH]cc(-c4ccc(C(=O)N(C)C)c5ccccc45)c3n2)cc(C)c1C1=CCN(C2CN(c3ncc(C(=O)NC4CCC(=O)NC4=O)o3)C2)CC1 (stereo not shown) [compound 064] | < 10
26 | Cc1cc(-c2cnc3[nH]cc(-c4ccc(C(=O)N(C)C)cc4)c3n2)cc(C)c1C1=CCN(CCCC(=O)c2ccc(C3CCC(=O)NC3=O)cc2)CC1 (stereo not shown) [compound 033] | < 10
27 | COc1ccc(C(=O)C2CCC(N3CC=C(c4c(C)cc(-c5cnc6[nH]cc(-c7ccc(C(=O)N(C)C)cc7)c6n5)cc4C)CC3)C2)cc1N1CCC(=O)NC1=O (stereo not shown) [compound 044] | < 10
28 | Cc1cc(-c2cnc3[nH]cc(-c4ccc(C(=O)N(C)C)cc4)c3n2)cnc1C1=CCN(C2CCN(c3ccc(N4CCC(=O)NC4=O)c(F)c3)C2)CC1 (stereo not shown) [compound 055] | < 10
29 | COc1ccc(N2CCC(C)(CN3CC=C(c4c(C)cc(-c5cnc6[nH]cc(-c7ccc(C(=O)N(C)C)cc7)c6n5)cc4C)CC3)C2)cc1N1CCC(=O)NC1=O (stereo not shown) [compound 035] | < 10
30 | Cc1cc(-c2cnc3[nH]cc(-c4ccc(C(=O)N(C)C)cc4)c3n2)cc(C)c1C1=CCN(CC2CCN(C(=O)c3ccc(Cl)c(N4CCC(=O)NC4=O)c3)CC2)CC1 [compound 120] | < 10
31 | Cc1cc(-c2cnc3[nH]cc(-c4ccc(C(=O)N(C)C)cc4)c3n2)cc(C)c1C1=CCN(CC2CN(c3ncc(C(=O)NC4CCC(=O)NC4=O)o3)C2)CC1 (stereo not shown) [compound 068] | < 10
32 | CN(C)C(=O)c1ccc(-c2c[nH]c3ncc(-c4ccc(C5=CCN(CC6CN(c7ccc(C(=O)NC8CCC(=O)NC8=O)cc7)C6)CC5)c(C5CCCN5)c4)nc23)cc1 (stereo not shown) [compound 058] | < 10
33 | Cc1cc(-c2cnc3[nH]cc(-c4ccc(C(=O)N(C)C)cc4)c3n2)cc(C)c1C1=CCN(CC2CCN(c3ccc(C(=O)NC4CCC(=O)NC4=O)cc3)C2)CC1 (stereo not shown) [compound 074] | < 10
34 | Cc1cc(N2CC(CN3CC=C(c4c(C)cc(-c5cnc(N)c(Oc6cnn(C7CCN(C)CC7)c6)n5)cc4C)CC3)C2)ccc1N1CCC(=O)NC1=O [compound 092] | < 10
35 | Cc1cc(-c2cnc3[nH]cc(-c4ccc(C(=O)N(C)C)cc4)c3n2)cc(C)c1C1=CCN(CC2CN(c3ccc(C(=O)NC4CCC(=O)NC4=O)c(F)c3)C2)CC1 (stereo not shown) [compound 100] | < 10
36 | Cc1cc(-c2cnc3[nH]cc(-c4ccc(C(=O)N(C)C)cc4)c3n2)cc(C)c1C1=CCN(CC2CN(c3cccc(C4CCC(=O)NC4=O)c3)C2)CC1 (stereo not shown) [compound 025] | < 10
37 | Cc1cc(N2CC(CN3CC=C(c4c(C)cc(-c5cnc6[nH]cc(-c7cnn(C8CCN(C(C)CC(=O)N(C)C)CC8)c7)c6c5)cc4C)CC3)C2)ccc1N1CCC(=O)NC1=O (stereo not shown) [compound 136] | < 10
38 | Cc1cc(-c2cnc3[nH]cc(-c4ccc(C(=O)N(C)C)cc4)c3n2)cc(C)c1C1=CCN(C2CN(c3cc(F)c(C4CCC(=O)NC4=O)c(F)c3)C2)CC1 (stereo not shown) [compound 007] | < 10
39 | Cc1cc(-c2cnc3[nH]cc(-c4ccc(C(=O)N(C)C)cc4)c3n2)cc(C)c1C1=CCN(CC2CN(c3ccc(NC4CCC(=O)NC4=O)cc3F)C2)CC1 (stereo not shown) [compound 106] | < 10
40 | COCC(C)N1CCC(n2cc(-c3c[nH]c4ncc(-c5cc(C)c(C6=CCN(CC7CN(c8ccc(N9CCC(=O)NC9=O)c(C)c8)C7)CC6)c(C)c5)cc34)cn2)CC1 (stereo not shown) [compound 128] | < 10
41 | CCOc1cc(-c2cnc3[nH]cc(-c4ccc(C(=O)N(C)C)cc4)c3c2)ccc1C1=CCN(CC2CN(c3ccc(N4CCC(=O)NC4=O)c(C)c3)C2)CC1 [compound 137] | < 10
42 | Cc1cc(-c2cnc3[nH]cc(-c4ccc(C(=O)N(C)C)cc4)c3n2)cc(C)c1C1=CCN(C(=O)C2CN(c3ccc(C4CCC(=O)NC4=O)cc3)C2)CC1 (stereo not shown) [compound 060] | < 10
43 | Cc1cc(-c2cnc3[nH]cc(-c4ccc(C(=O)N(C)C)cc4)c3n2)cc(C)c1C1=CCN(CC2CN(c3ccc(C(=O)N[C@H]4CCC(=O)NC4=O)c(F)c3)C2)CC1 [compound 071] | < 10
44 | COc1ccc(C(=O)N2CC(CN3CC=C(c4c(C)cc(-c5cnc6[nH]cc(-c7ccc(C(=O)N(C)C)cc7)c6n5)cc4C)CC3)C2)cc1N1CCC(=O)NC1=O [compound 001] | < 10
45 | CNS(=O)(=O)c1cc(C)cc(-c2cnc(N)c(Oc3cnn(C4CCN(CC5CN(c6ccc(C(=O)NC7CCC(=O)NC7=O)cc6)C5)CC4)c3)n2)c1 (stereo not shown) [compound 090] | < 10
46 | Cc1cc(-c2cnc3[nH]cc(-c4ccc(C(=O)N(C)C)cc4)c3n2)cc(C)c1C1=CCN(CC2CCN(c3ccc(C(=O)NC4CCC(=O)NC4=O)cc3)CC2)CC1 (stereo not shown) [compound 065] | < 10
